How the values were obtained:
Assay type in all cases: cell-based
SOD2 (MnSOD) = test: Western blot, SOD2 (MnSOD) expression in SW480 cells; conditions: SW480, IC50 concentration, 24, 48 and 72 h
Procedure: (§1) SW480 cells (1.68 × 10^5 cells/well) were seeded in 6-well plates and incubated at 37 °C for 24 h. […] At the end of the treatment period, cells were washed twice with ice-cold DPBS and incubated for 30 min. at 4 °C with lysis buffer containing 20 mM Tris-HCl (pH 7.5), 1 mM DTT, 0.2% Triton X-100, 1 mM Na-EDTA, 0.5 mM sodium deoxycholate, 1% proteases inhibitor cocktail, and 0.5% phosphatases inhibitor cocktail. The cells were scraped, sonicated, and centrifuged at 12,000× g for 20 min. at 4 °C. The supernatants were recovered, and the protein concentration was quantified using Pierce^TM BCA protein assay reagents A and B and Pierce^TM bovine serum albumin standard ampules (2 mg/mL).
(§2) Membranes were blocked with 5% skim milk in PBS-Tween-20 (0.1%) for 1 h at room temperature, following its incubation with the specific primary antibodies overnight at 4 °C (CDK4, CDK6, and SOD2 (MnSOD)). Exceptionally, the primary antibody against actin was only incubated for 30 min. at room temperature. The membranes were then washed with PBS-Tween-20 (0.1%) and incubated for 40 min. with an anti-mouse secondary antibody or for 1 h with an anti-rabbit secondary antibody. After incubation, the membranes were washed again with PBS-Tween-20 (0.1%) and treated with the Immobilon Western Chemiluminescent HRP Substrate Kit. […]

SW480 cells [1] = test: MTT cell viability assay, SW480; conditions: Homo sapiens, 72 h incubation, mean ± SD
Procedure: The effect of the compounds on cell viability was evaluated using the MTT assay. HCT116 (3000 cells/well), SW620 (8000 cells/well), SW480 (6000 cells/well), Caco-2 (4000 cells/well), A375 (1500 cells/well), MiaPaca-2 (2000 cells/well), and BJ (10,000 cells/well) cells were seeded in 96-well plates. After 24 h, the growth medium was replaced with a fresh medium containing the desired concentration of the compound or DMSO (control). After 72 h of incubation, the supernatant was removed and 100 µL of a mixture (1:1) of filtered MTT solution (1 mg/mL in PBS) with FBS-free medium was added to each well. After 1 h of incubation at 37 °C, the mixture was removed and 100 µL of DMSO was added to each well to dissolve the formed formazan crystals. Absorbance was immediately measured at 570 nm using a Benchmark Plus Microplate Reader (Bio-Rad Laboratories, Hercules, CA, USA). IC50 values were calculated using GraphPad Prism 9 software (GraphPad Software, San Diego, CA, USA) and expressed as the mean ± standard deviation (SD) of at least three independent experiments.

CDK6 = test: Western blot, CDK6 expression in SW480 cells; conditions: SW480, IC50 concentration, 24, 48 and 72 h
Procedure: as §1, §2

SW480 cells [2] = test: Cell cycle assay (PI, FACS); conditions: SW480, IC50 concentration
Procedure: SW480 cells were seeded in 6-well plates and treated as described for the apoptosis assay. After centrifugation, the cells were resuspended in 500 µL DPBS and added dropwise to 4.5 mL 70% (v/v) cold ethanol. The cell suspension was kept at −20 °C for a minimum of 4 h. The cell suspension was then centrifuged, washed with cold DPBS, resuspended in 360 µL DPBS containing 10 µL RNase (10 mg/mL), and incubated for 1 h, at 37 °C, with agitation. Before FACS analysis, 20 µL PI solution (1 mg/mL) was added to the samples. FACS analysis was performed using a Gallios flow cytometer (Beckman Coulter, Brea, CA, USA) at 488 nm. Data were acquired from 1 × 10^4 cells and subsequently analyzed using the multicycle software provided by Phoenix Flow Systems (San Diego, CA, USA).

SW480 cells [3] = test: Cell proliferation assay and cell doubling time; conditions: SW480 cells treated at IC50 concentration; control 42 h
Procedure: SW480 cells were seeded at a concentration of 1.68 × 10^5 cells per well in 6-well plates and incubated at 37 °C. […] Prior to treatment initiation (0 h), cells were trypsinized, washed with DPBS, and collected by centrifugation. The collected cells were resuspended in DPBS containing trypan blue and examined using an Invitrogen Countess 3 Automated Cell Counter (Thermo Fisher Scientific, Waltham, MA, USA) to determine the cell number and viability. This procedure was replicated at various treatment time points (24, 48, and 72 h) to generate a cell proliferation curve depicting the changes over time. Cell doubling time was calculated by dividing the natural logarithm of 2 by the growth rate.

CC(=O)Oc1c(C(C)C)cc2c(c1OC(C)=O)[C@@]1(NC(=O)NCCc3cccc(Cl)c3)CCCC(C)(C)[C@@H]1CC2 [Compound 14, (4bR,8aS)-4b-(3-(3-chlorophenethyl)ureido)-2-isopropyl-8,8-dimethyl-4b,5,6,7,8,8a,9,10-octahydrophenanthrene-3,4-diyl diacetate]
expression of SOD2 (MnSOD) (SOD2 (MnSOD)): no significant changes
IC50 (SW480 cells [1]): 6.1 ± 0.3 µM
CDK6 expression versus untreated cells (CDK6): downregulation
percentage of cells in the G0/G1 phase (SW480 cells [2]; 24 h, control 50.3%): 71%
percentage of cells in the G0/G1 phase (SW480 cells [2]; at the three time points (24, 48, 72 h)): higher than 66.6%
cell doubling time (SW480 cells [3]): 70 h

Reference: article PMC11728001, “Design, Synthesis, and Biological Evaluation of Novel Urea-Containing Carnosic Acid Derivatives with Anticancer Activity” (International Journal of Molecular Sciences, 2024)
